From patent publication US7250269B2, “Composition for assaying glycoprotein” (Asahi Kasei Pharma Corporation, priority 2001, dated 2007)
Where two headings read alike, the source gives them in different places.

Tests used:
Protease type-XXIV [1] = assay: Screening of globulin component-selective protease inhibitors using Hb substrate solution; format: biochemical, Bacillus; conditions: Hb substrate solution instead of HSA
Experimental: The same measurement was conducted using the Hb substrate solution instead of the HSA substrate solution, provided that when the Hb substrate solution was used, proteins were removed using trichloroacetic acid after the reaction with R-1, then the residue was neutralized and R-2 was added.

Protease type-XXIV [2] = assay: Screening of globulin component-selective protease inhibitors (HSA substrate with/without γ-globulin); format: biochemical, Bacillus; conditions: control 23.8
Excerpt: Using protease type-XXIV (manufactured by Sigma-Aldrich Co.) having high reactivity with the HSA substrate solution, components that decrease the protease reaction with the above globulin substrate solutions were screened based on the HSA substrate solution.
In the R-1 proteolytic reagent, as the deoxycholic acid amide, bisgluconamidopropyldeoxycholamide was used; as the cholic acid amide, 3-[(3-cholamidopropyl)dimethvlammonio]propane sulfonic acid, 3-[(3-cholamidopropyl)dimethylammonio]-2-hydroxypropane sulfonic acid, or bisgluconamidopropylcholamide was used; as the quaternary ammonium salt, benzyltriethylan chloride or benzyltri-n-butylammonium chloride was used; and as quatemary ammonium salt-type cationic surfactant, lauryltrimethylammonium chloride or lauryldimethylamine oxide was used.
• 1. HSA substrate solution: Albumin Human: 40 mg/ml, GA %=10.5% [manufactured by Wako Pure Chemical Industries, Ltd., the albumin concentration in the substrate solution was assayed using an albumin assay kit (albumin II-HA Test Wako; manufactured by Wako Pure Chemical Industries, Ltd.). GA % was assayed using a glycated albumin analyzer (GAA-2000, manufactured by ARKRAY, Inc.). • 2. γ-globulin addition substrate solution, 17.0 mg/ml of γ-globulin [γ-Globulins Human (manufactured by Sigma-Aldrich Co.), Fructosamine value=34 μM] was added to the above HSA substrate solution. <Reaction Procedure>
Absorbances at a wavelength of 546 nm were measured before and after the addition of R-2. The difference of the two measurements was regarded as the absorbance change. The same procedure was conducted using distilled water instead of the substrate to prepare a blank sample. In addition, a reaction solution without the addition of the globulin-selective protease inhibitor was used as a control.
ΔA (HSA) was calculated by subtracting the absorbance change of the blank sample from the absorbance change obtained for the HSA substrate solution. ΔA(+γ-globulin) was calculated by subtracting the absorbance change of the blank sample from the absorbance change obtained for the substrate solution to which γ-globulin was added. Effect of γ-globulin addition=(ΔA(+γ-globulin)−ΔA(HSA))/ΔA(HSA)×100(%)

Protease type-XXIV [3] = format: biochemical, Bacillus
Experimental: 5 g/dl HSA (LOT38H7601; manufactured by Sigma-Aldrich Co.)
(§1) 8 μl of a sample was added to 240 μl of the proteolytic reagent incubated at 37° C. […] A relative sensitivity for the experiment using the reagent containing a stabilizer to the experiment using the reagent not containing a stabilizer was calculated assuming that ΔA0obtained using the reagent not containing a stabilizer and used without storing is 100%.

[4] = test system: heat-stable type ascorbic acid oxidase (ASO-312); assay: Effect of buffer agent types on stabilization of ascorbic acid oxidase ASO-312 in the presence of protease; format: biochemical; conditions: pH 8.0, stored two days at room temperature
Experimental: 1 ml of the above mixed reaction reagent is placed in a small test tube and preheated at 30° C. for five minutes, then 0.10 ml of an appropriately diluted enzyme solution is added. The mixture is stirred to initiate the reaction. After the reaction for exactly 5 minutes, 3.0 ml of 0.2 N hydrochloric acid aqueous solution is added to terminate the reaction. Absorbance (As) at a wavelength of 245 nm is measured. For the blank test, 1 ml of the above reaction solution is placed in a small test tube and preheated at 30° C. for five minutes, then 3.0 ml of 0.2 N hydrochloric acid aqueous solution is added to terminate the reaction. 0.10 ml of an appropriately diluted enzyme solution is added and the mixture is stirred to measure the absorbance (Ab) at a wavelength of 245 nm. The enzyme activity is determined from the difference (Ab-As) between the absorbance (As) after the enzyme reaction and the blank test absorbance (Ab). The amount of enzyme oxidizing 1 μmol of ascorbic acid into dehydroascorbic acid in one minute at 30° C. is defined as 1 U. The calculation formula is shown below. Activity (U/ml)=[(Ab−As)/10.0]×[⅕]×[4.10/0.10]×[1/B] • 10.0: Molecular absorbance coefficient (mM) of ascorbic acid at 245 nm under the conditions of pH 1.0. • 5: Reaction time (min) • 4.10: Total reaction solution (ml) • 0.10: Amount of enzyme sample solution used for the reaction • B: Dilution magnification of the enzyme solution
The above reaction solutions were prepared using various buffer agents. A portion of each solution was used as a control after measuring the ascorbic acid oxidase activity. The above-described <<Method for Measuring the Activity of Ascorbic Acid Oxidase (ASOx)>> was employed for the activity measurement. The remaining portion of reaction solutions was stored for two days at room temperature, and the activity was measured in the same manner. The ratio of the activity after storage for two days at room temperature to the activity of the control was calculated to compare the stability of ascorbic acid oxidases.

Ascorbic acid oxidase = molecular target: T1, Ascorbic acid oxidase (Cucurbita maxima, UniProt P24792); conditions: R-1 stored 24 hours at room temperature; FIG. 4
T1 sequence (P24792 31-579): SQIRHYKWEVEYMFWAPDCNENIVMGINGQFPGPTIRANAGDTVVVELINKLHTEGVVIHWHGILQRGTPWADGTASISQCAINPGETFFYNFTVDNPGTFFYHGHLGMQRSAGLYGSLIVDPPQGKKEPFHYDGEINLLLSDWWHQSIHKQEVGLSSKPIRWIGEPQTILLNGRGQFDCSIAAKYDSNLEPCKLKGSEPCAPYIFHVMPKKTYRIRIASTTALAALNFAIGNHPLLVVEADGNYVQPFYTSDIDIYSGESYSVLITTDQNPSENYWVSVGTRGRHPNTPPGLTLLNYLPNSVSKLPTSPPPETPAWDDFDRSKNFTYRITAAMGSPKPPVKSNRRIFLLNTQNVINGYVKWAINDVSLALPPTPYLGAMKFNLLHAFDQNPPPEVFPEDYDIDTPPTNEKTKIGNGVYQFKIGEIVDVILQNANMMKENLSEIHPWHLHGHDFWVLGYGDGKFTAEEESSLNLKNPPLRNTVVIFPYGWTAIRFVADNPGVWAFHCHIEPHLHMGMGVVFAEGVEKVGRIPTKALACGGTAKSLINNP
Experimental: An ascorbic acid-addition substrate solution was prepared by adding one volume of ascorbic acid (1 g/dl) (manufactured by Kokusan Chemical Co., Ltd.) to nine volume of human pool blood serum. A solution prepared by adding distilled water instead of ascorbic acid was used as a control substrate solution.
8 μl of the control substrate solution or ascorbic acid-addition substrate solution was added to 240 μl of R-1 incubated at 37° C. The reaction was initiated at 37° C. and exactly 5 minutes thereafter 80 μl of R-2 was added. Absorbance at 555 nm was measured before the addition of R-2 and five minutes after the addition of R-2. ΔA0 was calculated by subtracting the absorbance change obtained from a blank sample using distilled water instead of the substrate solution from the absorbance change obtained from the absorbance measurement on the control substrate solution and ascorbic acid-addition substrate solution. The same reaction solution R-1 was stored at room temperature for 24 hours, and the absorbance was measured in the same manner to calculate ΔA24. The ratio of ΔA0 and ΔA24 obtained from the ascorbic acid-addition substrate solution was calculated assuming the absorbance change obtained from the control substrate solution as 100.

[5] = molecular target: T2, Ascorbic acid oxidase (ASO-311) (Cucurbita maxima, UniProt P24792); conditions: pH 8.0, stored two days at room temperature
T2 sequence (P24792 31-579): T1 sequence (P24792 31-579)

ASOx = assay: Storage of ASOx with protease in HEPES buffer solution pH 8.0 (inventors' investigation); format: biochemical; conditions: pH 8.0, protease and ASOx present
[6] = FOD enzyme activity / substrate specificity on glycated lysine; format: biochemical; conditions: glycated lysine / glycated valine
Experimental: 164 strains of mutant colonies obtained in Example 15 were cultured for 16 hours at 30° C. in 1.5 ml of a 3.7% BHI liquid medium (manufactured by DIFCO Co.) containing 50 μg/ml of ampicillin and 1 mM of IPTG. 1 ml of the culture broth was centrifuged (15,000 G for one minute at 4° C.) to collect cells. 200 μl of 10 mM Tris-HCl buffer solution (pH 8.0) was added to the collected cells. After crushing the cells using an ultrasonic breaker, the mixture was centrifuged (14,000 G for five minutes at 4° C.) to obtain a cell extract as a supernatant.
The glycated amino acid substrate specificity of FOD-mutated recombinant contained in the cell extract prepared in Example 16 was measured using the above-mentioned FOD enzyme activity measuring method.
Synthesis of an oligonucleotide having the base sequence of 1-27 in the sequence table Sequence ID No. 7 was consigned to an outside source (BEX Co., Ltd.). The oligonucleotide was subjected to the site-directed mutagenesis using the Mutan-K kit (manufactured by Takara Shuzo Co., Ltd.) according to the manual attached to the kit. The mutant gene obtained was incorporated again into the expression plasmid pTV119N, introduced into Escherichia coli host, and cultured at 30° C. for 16 hours in a 3.7% BHI liquid medium containing 50 μg/ml of ampicillin and 1 mM of IPTG to produce mutant FOD protein.

R-FOD-II = assay: Stabilization of enzyme reacting at least with glycated amino acid; format: biochemical; conditions: for stabilization effect on glycated amino acid assay reagent (relative sensitivity): stored at 37° C. for two days, without stabilizer 30%, FIG. 6
Experimental: as §1, with “ΔA0 obtained” for “ΔA0obtained”

[7] = stored at 37° C. for 24 hours, without stabilizer 60%, FIG. 5
[8] = stored in a liquid state in a refrigerator

C[N+](C)(C)CC(=O)O [Betaine]
effect of inhibiting a protease reaction with globulin (Protease type-XXIV [1]): effect of inhibiting a protease reaction with globulin
Effect of γ-globulin (%) (Protease type-XXIV [2]; additive concentration 0.10%): 7.6%

C[S+](C)[O-] [DMSO, Dimethylsulfoxide]
decrease in performance of proteolytic reagent (Protease type-XXIV [3]; storage for 4 weeks at 37° C.): almost no decrease in performance
decrease in performance of proteolytic reagent (Protease type-XXIV [3]; stored at 37° C. for 24 hours, FIG. 5): almost no decrease in performance
stabilization effect on proteolytic reagent (relative sensitivity) (Protease type-XXIV [3]; [7]): stabilization effect
storage stability effect (Protease type-XXIV [3]; [8]): one year or more

O=S(=O)(O)CCCN1CCN(CCO)CC1 [EPPS]
Relative activity (%) ASO-312 ([4]; Pronase): 31%
Relative activity (%) ASO-312 ([4]; Protease type XXIV): 30%
ascorbic acid eliminating capability after storing (Ascorbic acid oxidase): almost no ascorbic acid eliminating capability
Relative activity (%) ASO-311 ([5]; Pronase): 13%
Relative activity (%) ASO-311 ([5]; Protease type XXIV): 35%

CCO [EtOH, Ethanol]
stabilization effect on proteolytic reagent (relative sensitivity) (Protease type-XXIV [3]): stabilization effect

O=S(=O)(O)CCN1CCN(CCO)CC1 [HEPES]
ascorbic acid treating capability after storage (ASOx; one day at 37° C.): lost almost entirely
ascorbic acid treating capability after storage (ASOx; two weeks at 10° C.): lost almost entirely
Relative activity (%) ASO-312 ([4]; Pronase): 37%
Relative activity (%) ASO-312 ([4]; Protease type XXIV): 34%
ascorbic acid eliminating capability after storing (Ascorbic acid oxidase): almost no ascorbic acid eliminating capability
Relative activity (%) ASO-311 ([5]; Pronase): 17%
Relative activity (%) ASO-311 ([5]; Protease type XXIV): 31%

O=S(=O)(O)CC(O)CN1CCN(CCO)CC1 (centres unmarked) [HEPPSO]
Relative activity (%) ASO-312 ([4]; Pronase): 34%
Relative activity (%) ASO-312 ([4]; Protease type XXIV): 22%
ascorbic acid eliminating capability after storing (Ascorbic acid oxidase): almost no ascorbic acid eliminating capability
Relative activity (%) ASO-311 ([5]; Pronase): 14%
Relative activity (%) ASO-311 ([5]; Protease type XXIV): 37%

C[C@H](CCC(=O)N(CCCNC(=O)[C@H](O)[C@@H](O)[C@H](O)[C@H](O)CO)CCCNC(=O)[C@H](O)[C@@H](O)[C@H](O)[C@H](O)CO)[C@H]1CC[C@H]2[C@@H]3[C@H](O)C[C@@H]4C[C@H](O)CC[C@]4(C)[C@H]3C[C@H](O)[C@]12C [N,N-Bis(3-D-gluconamidopropyl)cholamido]
Effect of γ-globulin (%) (Protease type-XXIV [2]; additive concentration 1.0%): 21.0%

C[C@H](CCC(=O)N(CCCNC(=O)[C@H](O)[C@@H](O)[C@H](O)[C@H](O)CO)CCCNC(=O)[C@H](O)[C@@H](O)[C@H](O)[C@H](O)CO)[C@H]1CC[C@H]2[C@@H]3CC[C@@H]4C[C@H](O)CC[C@]4(C)[C@H]3C[C@H](O)[C@]12C [N,N-Bis(3-D-gluconamidopropyl)deoxycholamido]
Effect of γ-globulin (%) (Protease type-XXIV [2]; additive concentration 1.0%): 19.9%

CCCCCCCCO[C@@H]1O[C@H](CO)[C@@H](O)[C@H](O)[C@H]1O [Octylglucoside]
Effect of γ-globulin (%) (Protease type-XXIV [2]; additive concentration 1.0%): 18.5%

O=S(=O)(O)CC(O)CN1CCN(CC(O)CS(=O)(=O)O)CC1 (centres unmarked) [POPSO]
Relative activity (%) ASO-312 ([4]; Pronase): 80%
Relative activity (%) ASO-312 ([4]; Protease type XXIV): 56%
ascorbic acid eliminating capability after storing (Ascorbic acid oxidase): no change
Relative activity (%) ASO-311 ([5]; Pronase): 80%
Relative activity (%) ASO-311 ([5]; Protease type XXIV): 62%

O=P(O)(O)O [Phosphoric acid, phosphoric acid]
Relative activity (%) ASO-312 ([4]; Pronase): 108%
Relative activity (%) ASO-312 ([4]; Protease type XXIV): 86%
Relative activity (%) ASO-311 ([5]; Pronase): 88%
Relative activity (%) ASO-311 ([5]; Protease type XXIV): 77%

N=C(N)NCCC[C@H](N)C(=O)O [Reactive 327th amino acid Arginine]
Reactivity ratio, glycated lysine / glycated valine [6]: 440

C[C@@H](O)[C@H](N)C(=O)O [Reactive 327th amino acid Threonine]
Reactivity ratio, glycated lysine / glycated valine [6]: 927

[Ca+2].[Cl-].[Cl-] [calcium chloride, Calcium chloride]
stabilization effect on glycated amino acid assay reagent (relative sensitivity) (R-FOD-II): stabilization effect
decrease in performance of proteolytic reagent (Protease type-XXIV [3]): almost no decrease in performance
stabilization effect on proteolytic reagent (relative sensitivity) (Protease type-XXIV [3]): stabilization effect
storage stability effect (Protease type-XXIV [3]): one year or more

NCC(=O)O [glycine, Glycine]
decrease in performance of glycated amino acid assay reagent (R-FOD-II; storage for four weeks at 37° C.): almost no decrease in performance
stabilization effect on glycated amino acid assay reagent (relative sensitivity) (R-FOD-II): stabilization effect
storage stability effect (R-FOD-II; [8]): one or more years
Kcat Reactivity ratio (a)/(b) [6]: 365

[Cl-].[Na+] [sodium chloride, Sodium chloride]
stabilization effect on proteolytic reagent (relative sensitivity) (Protease type-XXIV [3]; [7]): stabilization effect

Alkylbenzyldimethylammonium chloride
Effect of γ-globulin (%) (Protease type-XXIV [2]; additive concentration 1.0%): 23.2%

Concanavalin A
effect of inhibiting a protease reaction with globulin (Protease type-XXIV [1]): effect of inhibiting a protease reaction with globulin
Effect of γ-globulin (%) (Protease type-XXIV [2]; additive concentration 0.21 mg/ml): 14.9%

Triethanolamine lauryl sulfate [TEALS]
stabilization effect on proteolytic reagent (relative sensitivity) (Protease type-XXIV [3]; [7]): stabilization effect

trishydroxymethylaminomethane
Relative activity (%) ASO-312 ([4]; Pronase): 62%
Relative activity (%) ASO-312 ([4]; Protease type XXIV): 44%
ascorbic acid eliminating capability after storing (Ascorbic acid oxidase): no change
Relative activity (%) ASO-311 ([5]; Pronase): 55%
Relative activity (%) ASO-311 ([5]; Protease type XXIV): 52%
